Laboratory results from patent US20210355066A1 (CymaBay Therapeutics, Inc., priority 2020, published 2021).

What was measured:
[1] = crystalline form
Text: A weighed aluminum pan configured as the sample pan was placed on the […] side of the cell.

[2] = target: CYP 2C9 (Homo sapiens, UniProt P11712); settings: tolbutamide hydroxylation assay; relative to (S)-enantiomer; cited from earlier work
Sequence of CYP 2C9 (P11712 whole entry, species assumed): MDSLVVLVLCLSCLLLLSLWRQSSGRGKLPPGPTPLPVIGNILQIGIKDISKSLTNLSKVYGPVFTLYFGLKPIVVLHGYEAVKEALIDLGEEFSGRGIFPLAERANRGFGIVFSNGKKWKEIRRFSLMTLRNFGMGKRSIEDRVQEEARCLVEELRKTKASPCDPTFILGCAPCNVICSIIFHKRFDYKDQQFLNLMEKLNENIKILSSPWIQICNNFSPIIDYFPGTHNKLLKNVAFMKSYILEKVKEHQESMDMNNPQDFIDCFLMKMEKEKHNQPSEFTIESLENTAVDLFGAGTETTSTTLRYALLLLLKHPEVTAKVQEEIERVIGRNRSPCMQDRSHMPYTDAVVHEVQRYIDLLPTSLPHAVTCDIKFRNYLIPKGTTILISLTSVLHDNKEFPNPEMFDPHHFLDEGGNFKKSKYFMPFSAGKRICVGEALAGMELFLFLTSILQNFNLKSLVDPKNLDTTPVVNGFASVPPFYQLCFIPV

2-hydroxy-N,N,N-trimethylethan-1-aminium (2R)-2-(4-chlorophenyl)-2-[3-(trifluoromethyl)phenoxy]acetate [CB-0406 choline salt]
stability to thermal stress [1]: good stability to thermal stress

O=C(O)[C@H](Oc1cccc(C(F)(F)F)c1)c1ccc(Cl)cc1 [CB-0406, (2R)-2-(4-chlorophenyl)-2-[3-(trifluoromethyl)phenoxy]acetic acid]
fold less active as an inhibitor of CYP 2C9 than its (S)-enantiomer [2]: approximately 20 fold
